Measurements published in ChEMBL document CHEMBL4680176, “Identification of DOT1L inhibitors by structure-based virtual screening adapted from a nucleoside-focused library” (Eur J Med Chem, 2020).
Activity calls are given as the source filed them. The rule behind the calls is not given here.

Legend:
[1] = target: Protein arginine N-methyltransferase 5 (Homo sapiens, UniProt O14744); test: Inhibition of recombinant human PRMT5 using histone H2A as substrate by hotspot assay; conditions: read-out: IC50
[2] = target: T1, Histone H3 methyltransferase DOT1 variant d (Mus musculus) (UniProt Q679P4); test: Inhibition of DOT1L in mouse bone marrow cell transformed with MLL-AF9 cells assessed as reduction in H3K79 methylation at 30 uM measured after 9 days by Western blot analysis relative to control; format: cell-based; conditions: time 9.0 day
T1 sequence (whole entry): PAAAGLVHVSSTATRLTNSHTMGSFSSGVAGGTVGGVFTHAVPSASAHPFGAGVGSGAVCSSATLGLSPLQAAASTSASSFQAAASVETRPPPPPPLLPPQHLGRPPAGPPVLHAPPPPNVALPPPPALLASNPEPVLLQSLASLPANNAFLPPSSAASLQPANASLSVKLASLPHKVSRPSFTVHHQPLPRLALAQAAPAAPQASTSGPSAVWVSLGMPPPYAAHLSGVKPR

Bone marrow cell [3] = test: Antiproliferative activity against mouse bone marrow cell transformed with MLL-AF9 assessed as reduction in cell growth measured after 6 days by hemocytometry; format: functional, cell-based; conditions: 144 h
Bone marrow cell [4] = test: Antiproliferative activity against mouse bone marrow cell transformed with MLL-AF9 assessed as reduction in cell growth measured after 11 days by hemocytometry; format: functional, cell-based; conditions: 264 h
[5] = target: T2, Histone-lysine N-methyltransferase SETD7 (Homo sapiens, UniProt Q8WTS6); test: Inhibition of recombinant human SET7/9 using core histone as substrate by hotspot assay
T2 sequence (Q8WTS6 whole entry): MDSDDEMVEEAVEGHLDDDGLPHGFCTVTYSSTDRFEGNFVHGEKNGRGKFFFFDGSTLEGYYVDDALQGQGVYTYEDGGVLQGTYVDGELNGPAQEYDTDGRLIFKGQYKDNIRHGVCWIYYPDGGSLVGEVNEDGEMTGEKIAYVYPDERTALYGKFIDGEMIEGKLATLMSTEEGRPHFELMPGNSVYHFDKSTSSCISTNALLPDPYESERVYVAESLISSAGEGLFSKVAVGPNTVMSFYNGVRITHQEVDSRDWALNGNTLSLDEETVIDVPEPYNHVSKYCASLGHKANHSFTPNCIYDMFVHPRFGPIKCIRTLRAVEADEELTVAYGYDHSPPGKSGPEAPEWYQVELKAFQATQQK

[6] = target: Histone-lysine N-methyltransferase EZH2 (Homo sapiens, UniProt Q15910); test: Inhibition of recombinant human EZH2 using core histone as substrate by hotspot assay
[7] = target: T3, Histone-lysine N-methyltransferase, H3 lysine-79 specific (Homo sapiens, UniProt Q8TEK3); test: Binding affinity to recombinant human N-terminal GST-tagged DOT1L (1 to 420 residues) expressed in Escherichia coli BL21 (DE3) assessed as increase in melting temperature incubated for 1 min by 1,8-ANS probe based thermal shift assay
Target sequence in this assay (Q8TEK3 whole entry, looked up, the tested form may be a part): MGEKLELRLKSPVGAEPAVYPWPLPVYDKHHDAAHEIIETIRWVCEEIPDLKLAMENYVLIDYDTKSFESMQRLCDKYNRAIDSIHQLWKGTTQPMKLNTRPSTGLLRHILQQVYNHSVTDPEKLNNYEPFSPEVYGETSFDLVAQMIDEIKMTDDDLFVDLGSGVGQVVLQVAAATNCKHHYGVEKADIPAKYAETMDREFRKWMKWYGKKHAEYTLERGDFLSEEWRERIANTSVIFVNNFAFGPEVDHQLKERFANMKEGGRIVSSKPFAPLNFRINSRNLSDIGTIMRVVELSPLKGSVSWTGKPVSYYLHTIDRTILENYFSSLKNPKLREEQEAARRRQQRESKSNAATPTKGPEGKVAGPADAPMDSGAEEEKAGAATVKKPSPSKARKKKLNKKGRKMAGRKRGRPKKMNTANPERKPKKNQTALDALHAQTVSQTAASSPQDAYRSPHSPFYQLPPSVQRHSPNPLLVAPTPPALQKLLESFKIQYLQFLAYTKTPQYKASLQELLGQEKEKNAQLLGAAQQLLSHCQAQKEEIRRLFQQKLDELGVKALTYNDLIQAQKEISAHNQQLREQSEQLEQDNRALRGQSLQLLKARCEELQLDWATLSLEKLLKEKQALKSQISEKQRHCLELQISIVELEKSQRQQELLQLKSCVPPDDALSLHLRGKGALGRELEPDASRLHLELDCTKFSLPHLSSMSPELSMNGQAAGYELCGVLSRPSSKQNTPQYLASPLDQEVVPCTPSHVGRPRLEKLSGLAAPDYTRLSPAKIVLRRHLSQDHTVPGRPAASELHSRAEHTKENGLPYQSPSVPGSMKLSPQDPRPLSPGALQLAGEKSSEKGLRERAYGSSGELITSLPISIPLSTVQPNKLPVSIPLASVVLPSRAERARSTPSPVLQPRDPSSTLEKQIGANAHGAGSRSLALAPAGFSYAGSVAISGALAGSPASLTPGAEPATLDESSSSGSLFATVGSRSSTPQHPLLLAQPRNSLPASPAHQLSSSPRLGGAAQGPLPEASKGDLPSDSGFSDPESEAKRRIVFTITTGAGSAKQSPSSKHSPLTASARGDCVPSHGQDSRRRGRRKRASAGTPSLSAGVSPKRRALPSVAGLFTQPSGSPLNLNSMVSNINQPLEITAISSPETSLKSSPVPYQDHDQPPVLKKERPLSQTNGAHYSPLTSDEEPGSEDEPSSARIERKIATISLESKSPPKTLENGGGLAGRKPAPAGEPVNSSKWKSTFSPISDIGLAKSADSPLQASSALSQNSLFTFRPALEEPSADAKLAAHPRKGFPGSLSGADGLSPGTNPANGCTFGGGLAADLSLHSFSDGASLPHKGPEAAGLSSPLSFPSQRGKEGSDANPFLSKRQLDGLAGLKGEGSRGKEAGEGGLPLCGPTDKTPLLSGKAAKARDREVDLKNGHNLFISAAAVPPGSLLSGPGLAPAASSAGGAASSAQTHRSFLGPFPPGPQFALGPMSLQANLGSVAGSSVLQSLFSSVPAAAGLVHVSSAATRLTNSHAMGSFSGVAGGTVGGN

[8] = target: T1, Histone H3 methyltransferase DOT1 variant d (Mus musculus); test: Inhibition of DOT1L in mouse bone marrow cell transformed with MLL-AF9 cells assessed as reduction in […] methylation at 1 to 30 uM measured after 6 days by Western blot analysis; format: cell-based; conditions: dose 1-30 µM, time 6.0 day
[9] = target: T1, Histone H3 methyltransferase DOT1 variant d (Mus musculus); test: Inhibition of DOT1L in mouse bone marrow cell transformed with MLL-AF9 cells assessed as reduction in H3K79 methylation measured after 9 days by Western blot analysis; format: cell-based; conditions: dose 1-30 µM, time 9.0 day
[10] = target: Protein arginine N-methyltransferase 8 (Homo sapiens, UniProt Q9NR22); test: Inhibition of recombinant human PRMT8 using histone H4 as substrate by hotspot assay
[11] = target: T3, Histone-lysine N-methyltransferase, H3 lysine-79 specific; test: Inhibition of recombinant human N-terminal GST-tagged DOT1L (1 to 420 residues) expressed in Escherichia coli BL21 (DE3) using histone as substrate incubated for 1 hr by MTase-glo based luminescence assay
Target sequence in this assay (Q8TEK3 whole entry, the tested form may be a part): as the sequence (Q8TEK3 whole entry, looked up, the tested form may be a part) above

Bone marrow cell [12] = test: Antiproliferative activity against mouse bone marrow cell transformed with MLL-AF9 assessed as reduction in cell growth measured after 9 days by hemocytometry; format: functional, cell-based; conditions: 216 h
[13] = target: T4, Histone-lysine N-methyltransferase EHMT2 (Homo sapiens, UniProt Q96KQ7); test: Inhibition of recombinant human G9a using histone H3 (1 to 21) as substrate by hotspot assay
T4 sequence (Q96KQ7 whole entry): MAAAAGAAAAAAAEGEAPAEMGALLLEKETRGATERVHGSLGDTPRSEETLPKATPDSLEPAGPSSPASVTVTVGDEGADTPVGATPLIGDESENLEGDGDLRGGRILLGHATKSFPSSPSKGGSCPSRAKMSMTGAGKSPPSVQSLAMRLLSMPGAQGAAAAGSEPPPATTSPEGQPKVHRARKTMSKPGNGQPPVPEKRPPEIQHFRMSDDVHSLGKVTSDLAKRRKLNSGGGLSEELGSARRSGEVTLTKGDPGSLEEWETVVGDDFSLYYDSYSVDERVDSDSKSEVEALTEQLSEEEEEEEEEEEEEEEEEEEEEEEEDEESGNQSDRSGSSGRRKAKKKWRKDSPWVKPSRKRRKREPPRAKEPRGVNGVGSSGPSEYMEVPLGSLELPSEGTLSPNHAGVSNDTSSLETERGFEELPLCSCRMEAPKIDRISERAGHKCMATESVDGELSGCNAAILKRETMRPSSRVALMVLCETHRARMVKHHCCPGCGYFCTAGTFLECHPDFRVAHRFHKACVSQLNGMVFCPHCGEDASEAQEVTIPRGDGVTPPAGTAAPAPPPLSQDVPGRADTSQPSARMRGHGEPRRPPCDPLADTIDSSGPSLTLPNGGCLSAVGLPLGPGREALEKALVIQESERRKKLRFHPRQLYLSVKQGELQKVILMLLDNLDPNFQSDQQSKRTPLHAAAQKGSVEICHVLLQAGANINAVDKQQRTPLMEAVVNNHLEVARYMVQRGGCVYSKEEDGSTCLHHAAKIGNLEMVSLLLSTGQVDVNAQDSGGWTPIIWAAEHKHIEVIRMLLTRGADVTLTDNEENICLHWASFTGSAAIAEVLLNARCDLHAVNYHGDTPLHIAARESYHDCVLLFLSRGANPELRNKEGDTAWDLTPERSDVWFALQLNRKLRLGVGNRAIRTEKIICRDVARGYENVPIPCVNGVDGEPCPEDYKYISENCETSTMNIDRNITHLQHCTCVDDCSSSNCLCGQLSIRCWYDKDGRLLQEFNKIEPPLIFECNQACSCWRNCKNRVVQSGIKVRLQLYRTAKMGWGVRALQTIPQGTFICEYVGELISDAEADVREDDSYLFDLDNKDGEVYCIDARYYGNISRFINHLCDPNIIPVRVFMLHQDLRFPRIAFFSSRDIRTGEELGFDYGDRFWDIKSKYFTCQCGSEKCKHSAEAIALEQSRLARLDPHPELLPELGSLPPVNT

Bone marrow cell [14] = test: Antiproliferative activity against mouse bone marrow cell transformed with MLL-AF9 assessed as reduction in cell growth at 30 uM measured after 11 days by hemocytometry relative to control; format: functional; conditions: 264 h, time 11 day
[15] = target: Protein arginine N-methyltransferase 3 (Homo sapiens, UniProt O60678); test: Inhibition of recombinant human PRMT3 using histone H4 as substrate by hotspot assay; conditions: read-out: IC50
Chain of Protein arginine N-methyltransferase 3 (O60678 whole entry): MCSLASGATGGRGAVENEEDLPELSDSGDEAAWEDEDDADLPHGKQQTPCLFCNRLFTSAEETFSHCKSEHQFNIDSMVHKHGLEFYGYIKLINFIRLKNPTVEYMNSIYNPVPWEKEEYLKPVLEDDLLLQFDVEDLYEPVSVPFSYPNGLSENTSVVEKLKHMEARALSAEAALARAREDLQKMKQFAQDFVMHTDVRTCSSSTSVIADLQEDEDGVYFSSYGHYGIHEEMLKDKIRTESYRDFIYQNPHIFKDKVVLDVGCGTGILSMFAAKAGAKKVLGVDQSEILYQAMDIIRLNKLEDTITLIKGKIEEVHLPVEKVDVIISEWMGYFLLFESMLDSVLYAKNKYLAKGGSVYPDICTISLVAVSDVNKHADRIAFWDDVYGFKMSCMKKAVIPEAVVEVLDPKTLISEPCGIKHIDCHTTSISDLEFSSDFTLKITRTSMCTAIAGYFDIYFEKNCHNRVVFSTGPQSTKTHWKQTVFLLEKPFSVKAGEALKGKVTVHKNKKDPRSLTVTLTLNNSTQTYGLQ

Chain of Protein arginine N-methyltransferase 5 (O14744 whole entry): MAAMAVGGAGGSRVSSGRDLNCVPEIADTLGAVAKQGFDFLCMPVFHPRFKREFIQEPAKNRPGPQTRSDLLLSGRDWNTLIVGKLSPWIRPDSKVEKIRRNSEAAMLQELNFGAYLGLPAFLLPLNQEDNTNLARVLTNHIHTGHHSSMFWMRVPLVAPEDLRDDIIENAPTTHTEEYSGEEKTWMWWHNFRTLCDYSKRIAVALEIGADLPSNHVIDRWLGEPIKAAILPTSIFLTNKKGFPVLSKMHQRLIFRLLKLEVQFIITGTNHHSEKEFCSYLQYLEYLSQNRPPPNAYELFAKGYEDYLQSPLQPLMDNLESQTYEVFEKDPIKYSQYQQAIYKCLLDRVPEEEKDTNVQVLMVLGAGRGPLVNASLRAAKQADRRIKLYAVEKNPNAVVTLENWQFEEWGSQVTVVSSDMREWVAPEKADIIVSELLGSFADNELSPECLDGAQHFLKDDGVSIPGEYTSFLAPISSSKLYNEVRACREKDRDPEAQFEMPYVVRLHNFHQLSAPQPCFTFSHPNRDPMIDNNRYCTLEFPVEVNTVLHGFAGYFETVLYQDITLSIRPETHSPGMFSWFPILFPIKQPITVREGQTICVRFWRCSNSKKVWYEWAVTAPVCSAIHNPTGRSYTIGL
Chain of Protein arginine N-methyltransferase 8 (Q9NR22 whole entry, the tested form may be a part): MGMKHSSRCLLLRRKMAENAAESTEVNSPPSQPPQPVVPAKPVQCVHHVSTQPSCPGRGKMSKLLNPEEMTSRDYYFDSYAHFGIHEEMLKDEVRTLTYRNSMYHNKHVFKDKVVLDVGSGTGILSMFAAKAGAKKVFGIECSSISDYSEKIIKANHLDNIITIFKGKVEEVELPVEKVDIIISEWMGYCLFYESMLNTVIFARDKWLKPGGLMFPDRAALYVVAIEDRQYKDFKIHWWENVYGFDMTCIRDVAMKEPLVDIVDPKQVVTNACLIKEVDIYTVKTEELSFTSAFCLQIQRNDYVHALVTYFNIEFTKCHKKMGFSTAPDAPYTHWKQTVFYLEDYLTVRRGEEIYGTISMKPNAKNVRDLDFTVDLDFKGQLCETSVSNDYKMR
Chain of Histone-lysine N-methyltransferase EZH2 (Q15910 whole entry, the tested form may be a part): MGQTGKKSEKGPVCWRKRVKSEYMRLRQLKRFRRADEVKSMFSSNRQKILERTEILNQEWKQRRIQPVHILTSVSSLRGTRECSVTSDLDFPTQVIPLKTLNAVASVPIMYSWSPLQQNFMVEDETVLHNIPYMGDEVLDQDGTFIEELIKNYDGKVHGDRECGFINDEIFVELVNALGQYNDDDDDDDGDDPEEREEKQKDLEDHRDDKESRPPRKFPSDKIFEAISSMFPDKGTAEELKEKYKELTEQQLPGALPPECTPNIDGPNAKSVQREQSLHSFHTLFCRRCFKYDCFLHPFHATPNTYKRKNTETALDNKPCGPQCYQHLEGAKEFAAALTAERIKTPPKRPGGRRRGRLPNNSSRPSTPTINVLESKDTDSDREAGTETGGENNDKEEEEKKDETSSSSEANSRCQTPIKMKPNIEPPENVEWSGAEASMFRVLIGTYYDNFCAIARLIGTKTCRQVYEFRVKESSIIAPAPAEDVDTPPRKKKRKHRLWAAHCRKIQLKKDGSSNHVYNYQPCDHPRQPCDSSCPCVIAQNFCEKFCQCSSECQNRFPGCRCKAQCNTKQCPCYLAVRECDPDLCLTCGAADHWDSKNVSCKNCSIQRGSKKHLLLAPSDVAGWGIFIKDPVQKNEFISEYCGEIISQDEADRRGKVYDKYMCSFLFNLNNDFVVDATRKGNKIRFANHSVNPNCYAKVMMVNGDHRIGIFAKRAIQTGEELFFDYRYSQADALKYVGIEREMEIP

CC(C)(C)c1ccc(NC(=O)c2ncn(CC(=O)NCCn3ccc4c(N)ncnc43)n2)cc1
IC50 [1]: 165 µM
inhibition [2]: 100%
IC50 (Bone marrow cell [3]): 8.8 µM
IC50 (Bone marrow cell [4]): 1 µM
IC50 [5]: Not Active
IC50 [6]: Not Active
Activity [7]: Dose-dependent effect
inhibition [8]: inactive
inhibition [9]: Dose-dependent effect
IC50 [10]: > 250 µM
IC50 [11]: 1 µM
IC50 (Bone marrow cell [12]): 4.2 µM
IC50 [13]: Not Active
inhibition at 30 µM (Bone marrow cell [14]): 100%
IC50 [15]: 115 µM
